What was measured:
[1] = molecular target: T1, recombinant human ALK5 (TGF-βR1) protein (Homo sapiens, UniProt P36897); experiment: Biochemical ALK5 (TGF-βR1) assay to measure pKi (LANCE Ultra ULight kinase assay); details: apparent pKi, converted from pIC50 using the Cheng-Prusoff equation
T1 construct: purchased Life Technologies PR9075A
T1 sequence (P36897 34-503): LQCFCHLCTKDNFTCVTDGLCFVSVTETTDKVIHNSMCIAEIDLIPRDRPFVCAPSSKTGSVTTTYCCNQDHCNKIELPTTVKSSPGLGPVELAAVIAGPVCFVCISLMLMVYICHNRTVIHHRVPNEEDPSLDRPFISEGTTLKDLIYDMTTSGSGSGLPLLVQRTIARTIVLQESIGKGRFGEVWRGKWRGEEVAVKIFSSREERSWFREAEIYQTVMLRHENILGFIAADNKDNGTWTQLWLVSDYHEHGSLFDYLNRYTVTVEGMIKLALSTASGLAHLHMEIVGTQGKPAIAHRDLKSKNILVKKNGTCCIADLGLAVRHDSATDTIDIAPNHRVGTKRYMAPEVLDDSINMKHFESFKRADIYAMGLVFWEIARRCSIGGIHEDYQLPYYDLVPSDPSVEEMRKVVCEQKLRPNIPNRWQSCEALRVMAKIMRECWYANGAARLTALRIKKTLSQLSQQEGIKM
Summary of the method: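 TR-FRET kinase format: compound dose range 10 μM–25 pM equilibrated 60 min with human ALK5 and ULight-labelled topoisomerase 2α peptide in HEPES/MgCl2 buffer pH 7.5 with DTT. Reaction started with ATP (125 μM stock, 5× final), 60 min at 37° C, stopped with EDTA/Eu-anti-phospho antibody; pKi derived from pIC50 via Cheng-Prusoff.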

[2] = test system: TGF-β-stimulated SMAD3 phosphorylation in BEAS-2B cells; experiment: Cellular ALK5 potency assay, inhibition of TGF-β stimulated pSMAD3 formation in BEAS-2B cells; format: cell-based; details: Homo sapiens, inhibition of TGF-β (10 ng/mL) stimulated pSMAD3 formation, 1 hour compound incubation, read-out: BEAS2B pIC50 (converted)
Summary of the method: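 Phospho-SMAD3 was quantified by AlphaLISA in lysates of human lung epithelial BEAS-2B cells. Compound was added 1 h (37 °C, HEPES/BSA-supplemented HBSS) before a 30 min challenge with 10 ng/mL TGF-β. Values are pIC50 relative to stimulated cells without compound.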

| Ki [1] [nM] | Compound | IC50 [2] [nM] |
| --- | --- | --- |
| 0.398 to 3.16 | Fc1cc(F)c(-c2n[nH]cc2-c2ccc3ncc(NCC4CCCN4)cc3n2)cc1Cl (racemic) [Compound 6-73, 6-[3-(5-chloro-2,4-difluoro-phenyl)-1H-pyrazol-4-yl]-N-[[rac-(2S)-pyrrolidin-2-yl]methyl]-1,5-naphthyridin-3-amine] | 25.1 to 158 |
| 0.0398 to 0.316 | Fc1ccc(Cl)cc1-c1n[nH]cc1-c1ccc2ncc(-c3ncn4c3CNCC4)cc2n1 [Compound 1-113, 2-[3-(5-chloro-2-fluoro-phenyl)-1H-pyrazol-4-yl]-7-(5,6,7,8-tetrahydroimidazo[1,5-a]pyrazin-1-yl)-1,5-naphthyridine] | 25.1 to 158 |
| 0.398 to 3.16 | Fc1ccc(-c2[nH]cnc2-c2ccc3ncc(NCCN4CCNCC4)cc3n2)cc1F [Compound 9-1, 6-(5-(3,4-difluorophenyl)-1H-imidazol-4-yl)-N-(2-(piperazin-1-yl)ethyl)-1,5-naphthyridin-3-amine] | 200 to 1260 |
| 0.398 to 3.16 | CN1CC2CN(c3cnc4ccc(-c5c[nH]nc5-c5cc(Cl)ccc5F)nc4c3)C2C1 (stereo not drawn) [Compound 1-72, 2-[3-(5-chloro-2-fluoro-phenyl)-1H-pyrazol-4-yl]-7-(3-methyl-3,6-diazabicyclo[3.2.0]heptan-6-yl)-1,5-naphthyridine] | 25.1 to 158 |
| 0.0398 to 0.316 | CN(C)C1CN(c2cnc3ccc(-c4c[nH]nc4-c4cc(Cl)c(F)cc4F)nc3c2)C1 [Compound 6-19, 1-[6-[3-(5-chloro-2,4-difluoro-phenyl)-1H-pyrazol-4-yl]-1,5-naphthyridin-3-yl]-N,N-dimethyl-azetidin-3-amine] | 25.1 to 158 |
| 0.398 to 3.16 | CC(C)N1CCN(CCNc2cnc3ccc(-c4nc[nH]c4-c4cccc(Cl)c4)nc3c2)CC1 [Compound 29-1, 6-(5-(3-chlorophenyl)-1H-imidazol-4-yl)-N-(2-(4-isopropylpiperazin-1-yl)ethyl)-1,5-naphthyridin-3-amine] | ≤ 20 |
| 0.398 to 3.16 | O=C(NCc1ccccc1)[C@H]1CN(c2cnc3ccc(-c4c[nH]nc4-c4cc(Cl)ccc4F)nc3c2)CCN1 [Compound 1-67, (2R)-N-benzyl-4-[6-[3-(5-chloro-2-fluoro-phenyl)-1H-pyrazol-4-yl]-1,5-naphthyridin-3-yl]piperazine-2-carboxamide] | 25.1 to 158 |
| ≤ 0.0316 | CNCCn1ccc(-c2cnc3ccc(-c4c[nH]nc4-c4cc(Cl)c(F)cc4F)nc3c2)n1 [Compound 6-40, 2-(3-(6-(3-(5-chloro-2,4-difluorophenyl)-1H-pyrazol-4-yl)-1,5-naphthyridin-3-yl)-1H-pyrazol-1-yl)-N-methylethan-1-amine] | ≤ 20 |
| 0.0398 to 0.316 | NC1CN(c2cnc3ccc(-c4c[nH]nc4-c4cc(Cl)c(F)cc4F)nc3c2)C1 [Compound 6-30, 1-[6-[3-(5-chloro-2,4-difluoro-phenyl)-1H-pyrazol-4-yl]-1,5-naphthyridin-3-yl]azetidin-3-amine] | 25.1 to 158 |
| 0.398 to 3.16 | O=C(O)[C@H]1CN(c2cnc3ccc(-c4c[nH]nc4-c4cc(Cl)c(F)cc4F)nc3c2)CCN1 [Compound 6-68, (2R)-4-[6-[3-(5-chloro-2,4-difluoro-phenyl)-1H-pyrazol-4-yl]-1,5-naphthyridin-3-yl]piperazine-2-carboxylic acid] | 200 to 1260 |
| 0.0398 to 0.316 | CN(C)C1CCN(c2cnc3ccc(-c4c(-c5cc(Cl)ccc5F)nc5ccccn45)cc3c2)C1 (racemic) [Compound 19-7, rac-(3S)-1-[6-[2-(5-chloro-2-fluoro-phenyl)imidazo[1,2-a]pyridin-3-yl]-3-quinolyl]-N,N-dimethyl-pyrrolidin-3-amine] | 200 to 1260 |
| 0.398 to 3.16 | COC(=O)CC1CN(c2cnc3ccc(-c4nc[nH]c4-c4cccc(Cl)c4)nc3c2)CCN1 (stereo not drawn) [Compound 29-3, methyl 2-(4-(6-(5-(3-chlorophenyl)-1H-imidazol-4-yl)-1,5-naphthyridin-3-yl)piperazin-2-yl)acetate] | 25.1 to 158 |
| 0.0398 to 0.316 | Fc1ccc(Cl)cc1-c1n[nH]cc1-c1ccc2ncc(N3CCn4nc(N5CCN(Cc6ccccc6)CC5)cc4C3)cc2n1 [Compound 1-47, 7-[2-(4-benzylpiperazin-1-yl)-6,7-dihydro-4H-pyrazolo[1,5-a]pyrazin-5-yl]-2-[3-(5-chloro-2-fluoro-phenyl)-1H-pyrazol-4-yl]-1,5-naphthyridine] | 25.1 to 158 |
| 0.0398 to 0.316 | Fc1ccc(Cl)cc1-c1n[nH]cc1-c1ccc2ncc(NC[C@@H]3CCCN3)cc2n1 [Compound 1-20, 6-[3-(5-chloro-2-fluoro-phenyl)-1H-pyrazol-4-yl]-N-[[(2S)-pyrrolidin-2-yl]methyl]-1,5-naphthyridin-3-amine] | ≤ 20 |
| 0.398 to 3.16 | CC(C)N1CCN(CCNc2cnc3ccc(-c4c(-c5cc(Cl)ccc5F)nc5ccccn45)cc3c2)CC1 [Compound 19-6, 6-(2-(5-chloro-2-fluorophenyl)imidazo[1,2-a]pyridin-3-yl)-N-(2-(4-isopropylpiperazin-1-yl)ethyl)quinolin-3-amine] | 200 to 1260 |
| ≤ 0.0316 | Fc1ccc(Cl)cc1-c1n[nH]cc1-c1ccc2ncc(NCC3CCNCC3)cc2n1 [Compound 1-27, 6-[3-(5-chloro-2-fluoro-phenyl)-1H-pyrazol-4-yl]-N-(4-piperidylmethyl)-1,5-naphthyridin-3-amine] | 25.1 to 158 |
| ≤ 0.0316 | CNCC1CN(c2cnc3ccc(-c4c[nH]nc4-c4cc(Cl)c(F)cc4F)nc3c2)C1 [Compound 6-29, 1-[1-[6-[3-(5-chloro-2,4-difluoro-phenyl)-1H-pyrazol-4-yl]-1,5-naphthyridin-3-yl]azetidin-3-yl]-N-methyl-methanamine] | ≤ 20 |
| 3.98 to 31.6 | Fc1ccc(Cl)cc1-c1[nH]nnc1-c1ccc2ncc(N3CCCNCC3)cc2c1 [Compound 18-7, 6-[5-(5-chloro-2-fluoro-phenyl)-1H-triazol-4-yl]-3-(1,4-diazepan-1-yl)quinoline] | 200 to 1260 |
| 0.0398 to 0.316 | CNC(=O)[C@@H]1CN(c2cnc3ccc(-c4c[nH]nc4-c4cc(Cl)ccc4F)nc3c2)CCN1 [Compound 1-58, (2S)-4-[6-[3-(5-chloro-2-fluoro-phenyl)-1H-pyrazol-4-yl]-1,5-naphthyridin-3-yl]-N-methyl-piperazine-2-carboxamide] | 25.1 to 158 |
| 0.398 to 3.16 | CC(C)N1CCN(CCNc2cnc3ccc(-c4nn[nH]c4-c4cc(Cl)ccc4F)cc3c2)CC1 [Compound 18-3, 6-(5-(5-chloro-2-fluorophenyl)-1H-1,2,3-triazol-4-yl)-N-(2-(4-isopropylpiperazin-1-yl)ethyl)quinolin-3-amine] | 25.1 to 158 |
| 0.0398 to 0.316 | Fc1ccc(Cl)cc1-c1n[nH]cc1-c1ccc2ncc(-c3cn[nH]c3)cc2c1 [Compound 16-2, 6-[3-(5-chloro-2-fluoro-phenyl)-1H-pyrazol-4-yl]-3-(1H-pyrazol-4-yl)quinoline] | ≤ 20 |
| 0.398 to 3.16 | Fc1cc(F)c(-c2n[nH]cc2-c2ccc3ncc(-c4ncc5n4CCNC5)cc3n2)cc1Cl [Compound 6-51, 2-[3-(5-chloro-2,4-difluoro-phenyl)-1H-pyrazol-4-yl]-7-(5,6,7,8-tetrahydroimidazo[1,5-a]pyrazin-3-yl)-1,5-naphthyridine] | 25.1 to 158 |
| ≤ 0.0316 | NC1CCN(c2cnc3ccc(-c4c[nH]nc4-c4cc(Cl)ccc4F)nc3c2)C1 (stereo not drawn) [Compound 1-55, 1-[6-[3-(5-chloro-2-fluoro-phenyl)-1H-pyrazol-4-yl]-1,5-naphthyridin-3-yl]pyrrolidin-3-amine] | ≤ 20 |
| 0.0398 to 0.316 | CC1CN(c2cnc3ccc(-c4c[nH]nc4-c4cc(Cl)ccc4F)nc3c2)CC(C)N1CCN (stereo not drawn) [Compound 1-122, 2-[4-[6-[3-(5-chloro-2-fluoro-phenyl)-1H-pyrazol-4-yl]-1,5-naphthyridin-3-yl]-2,6-dimethyl-piperazin-1-yl]ethanamine] | 25.1 to 158 |
| 3.98 to 31.6 | CNCCn1cc(-c2cnc3ccc(-c4c(-c5ccc(F)c(F)c5)[nH]c5cccnc45)nc3c2)cn1 [Compound 27-1, 2-[4-[6-[2-(3,4-difluorophenyl)-1H-pyrrolo[3,2-b]pyridin-3-yl]-1,5-naphthyridin-3-yl]pyrazol-1-yl]-N-methyl-ethanamine] | 25.1 to 158 |
| 0.0398 to 0.316 | Fc1ccc(Cl)cc1-c1n[nH]cc1-c1ccc2ncc(-c3[nH]nc4c3CCNC4)cc2n1 [Compound 1-121, 2-[3-(5-chloro-2-fluoro-phenyl)-1H-pyrazol-4-yl]-7-(4,5,6,7-tetrahydro-2H-pyrazolo[3,4-c]pyridin-3-yl)-1,5-naphthyridine] | 25.1 to 158 |
| 0.0398 to 0.316 | CCN1CCN(CCNc2cnc3ccc(-c4c[nH]nc4-c4cc(Cl)c(F)cc4F)nc3c2)CC1 [Compound 6-3, 6-[3-(5-chloro-2,4-difluoro-phenyl)-1H-pyrazol-4-yl]-N-[2-(4-ethylpiperazin-1-yl)ethyl]-1,5-naphthyridin-3-amine] | ≤ 20 |

— patent publication US11730720B2, “ALK5 inhibitors” (THERAVANCE BIOPHARMA R&D IP, LLC, priority 2018, dated 2023)
